Data taken from patent US10047098B2, “C5-C6-oxacyclic fused iminopyrimidinone compounds as bace inhibitors, compositions, and their use” (Merck Sharp & Dohme Corp., priority 2014, dated 2018).
pKi: −log10 of the molar value.

Experiments:
[1] = target: purified human autoBACE-2 (Homo sapiens (Human), UniProt Q9Y5Z0); assay: BACE-2 Assay (BACE-HTRF assay); format: biochemical; details: Ki calculated from IC50 using the Cheng-Prusoff equation; QSY7-EISEVNLDAEFC-Eu-amide substrate, pH 5.0
Procedure, shortened: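 Endpoint proteolysis of a QSY7/europium FRET peptide by purified human autoBACE-2, 5% DMSO final, read by time-resolved fluorescence at 620 nm after 320 nm excitation.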

[2] = target: Recombinant human soluble BACE1 catalytic domain (Homo sapiens (Human), UniProt P56817); assay: BACE1 HTRF FRET Assay; format: biochemical; details: Ki calculated from IC50 using the Cheng-Prusoff equation; QSY7-APPswe-Eu substrate, pH 5.0; read-out: BACE-1 Ki
Sequence of Recombinant human soluble BACE1 catalytic domain (P56817 75-416): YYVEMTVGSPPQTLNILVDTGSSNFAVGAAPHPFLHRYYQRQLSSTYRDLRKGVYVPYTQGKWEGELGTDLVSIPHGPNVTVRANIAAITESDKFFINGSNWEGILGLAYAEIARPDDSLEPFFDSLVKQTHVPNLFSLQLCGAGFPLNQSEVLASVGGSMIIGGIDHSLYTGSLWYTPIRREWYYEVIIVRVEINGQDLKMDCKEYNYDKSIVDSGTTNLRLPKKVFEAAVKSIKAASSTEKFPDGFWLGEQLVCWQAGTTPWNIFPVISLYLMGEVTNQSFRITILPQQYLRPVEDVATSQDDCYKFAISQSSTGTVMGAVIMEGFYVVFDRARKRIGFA
Procedure, shortened: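 Purified BACE1 catalytic domain (3 nM as added) is preincubated with inhibitor for 30 min at 30 °C in 20 mM Na-acetate pH 5.0, 10% glycerol, 0.1% Brij-35, 7.5% DMSO. QSY7-APP^swe-Eu substrate (200 nM final) is then cleaved for 1.5 h at 30 °C and read as time-resolved 620 nm fluorescence. IC50s come from nonlinear regression, and Ki from Cheng-Prusoff using substrate Km 8 μM.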

Sequence of purified human autoBACE-2 (Q9Y5Z0 63-473 limits assumed): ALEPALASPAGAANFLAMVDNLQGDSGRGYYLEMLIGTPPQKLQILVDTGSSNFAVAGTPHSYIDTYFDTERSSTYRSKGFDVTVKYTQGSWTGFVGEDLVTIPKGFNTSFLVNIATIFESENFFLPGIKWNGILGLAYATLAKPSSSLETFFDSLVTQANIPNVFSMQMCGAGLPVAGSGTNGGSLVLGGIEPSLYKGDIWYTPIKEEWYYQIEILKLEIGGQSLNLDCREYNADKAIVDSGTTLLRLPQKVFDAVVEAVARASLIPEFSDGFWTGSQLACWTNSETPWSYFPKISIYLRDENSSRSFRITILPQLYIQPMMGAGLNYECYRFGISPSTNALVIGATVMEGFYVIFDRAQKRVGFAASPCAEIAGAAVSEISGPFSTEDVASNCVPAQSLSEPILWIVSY

SMILES | pKi [1] | pKi [2]
C[C@H]1C[C@H]2C(=O)N(C)C(=N)N[C@@]2(c2cc(Oc3cc4ccccc4cn3)ccc2F)CO1 [Example 77, (4aR,6S,8aS)-8a-(2-fluoro-5-(isoquinolin-3-yloxy)phenyl)-2-imino-3,6-dimethylhexahydro-1H-pyrano[3,4-d]pyrimidin-4(4aH)-one] | 6.62 | 5.84
CN1C(=N)N[C@@]2(c3cc(C#N)ccc3F)CO[C@@H](C3CC3)C[C@H]2C1=O [Example 38, 3-((4aR,6R,8aS)-6-cyclopropyl-2-imino-3-methyl-4-oxohexahydro-1H-pyrano[3,4-d]pyrimidin-8a(8H)-yl)-4-fluorobenzonitrile] | 6.40 | 6.69
COC[C@H]1C[C@H]2C(=O)N(C)C(=N)N[C@@]2(c2cc(OCC3CC3)c(F)cc2F)CO1 [Example 5, (4aR,6R,8aS)-8a-(5-(cyclopropylmethoxy)-2,4-difluorophenyl)-2-imino-6-(methoxymethyl)-3-methylhexahydro-1H-pyrano[3,4-d]pyrimidin-4(4aH)-one] | 7.09 | 7.17
Cc1cnc(Oc2ccc(F)c([C@]34CO[C@@H](C5CC5)C[C@H]3C(=O)N(C)C(=N)N4)c2)c(F)c1 [Example 60, (4aR,6R,8aS)-6-cyclopropyl-8a-(2-fluoro-5-((3-fluoro-5-methylpyridin-2-yl)oxy)phenyl)-2-imino-3-methylhexahydro-1H-pyrano[3,4-d]pyrimidin-4(4aH)-one] | 6.90 | 6.92
Cc1nccc(Oc2ccc(F)c([C@]34CO[C@@H](C5CC5)C[C@H]3C(=O)N(C)C(=N)N4)c2)n1 [Example 22, (4aR,6R,8aS)-6-cyclopropyl-8a-(2-fluoro-5-((2-methylpyrimidin-4-yl)oxy)phenyl)-2-imino-3-methylhexahydro-1H-pyrano[3,4-d]pyrimidin-4(4aH)-one] | 6.74 | 7.24
COC[C@H]1C[C@H]2C(=O)N(C)C(=N)N[C@@]2(c2cc(Br)ccc2F)CO1 [Example 89, (4aR,6R,8aS)-8a-(5-bromo-2-fluorophenyl)-2-imino-6-(methoxymethyl)-3-methylhexahydro-1H-pyrano[3,4-d]pyrimidin-4(4aH)-one] | 6.52 | 6.04
CN1C(=N)N[C@@]2(c3cc(Br)ccc3F)CO[C@@H](c3ccc(F)cc3)C[C@H]2C1=O [Example 83, (4aR,6R,8aS)-8a-(5-bromo-2-fluorophenyl)-6-(4-fluorophenyl)-2-imino-3-methylhexahydro-1H-pyrano[3,4-d]pyrimidin-4(4aH)-one] | 7.62 | 7.22
C[C@H]1C[C@H]2C(=O)N(C)C(=N)N[C@@]2(c2cc(O)ccc2F)CO1 [Example 64, (4aR,6S,8aS)-8a-(2-fluoro-5-hydroxyphenyl)-2-imino-3,6-dimethylhexahydro-1H-pyrano[3,4-d]pyrimidin-4(4aH)-one] | 7.08 | 6.45
COC(=O)[C@@H]1C[C@H]2C(=O)N(C)C(=N)N[C@@]2(c2ccc(F)cc2F)CO1 [Example 48, methyl (4aR,6S,8aS)-8a-(2,4-difluorophenyl)-2-imino-3-methyl-4-oxooctahydro-1H-pyrano[3,4-d]pyrimidine-6-carboxylate] | 5.86 | 5.96
CN1C(=N)N[C@@]2(c3cc(O)ccc3F)CO[C@@H](c3ccc(F)cc3)C[C@H]2C1=O [Example 84, (4aR,6R,8aS)-8a-(2-fluoro-5-hydroxyphenyl)-6-(4-fluorophenyl)-2-imino-3-methylhexahydro-1H-pyrano[3,4-d]pyrimidin-4(4aH)-one] | 7.76 | 7.15
C[C@H]1C[C@H]2C(=O)N(C)C(=N)N[C@@]2(c2cc(Oc3ccncc3F)ccc2F)CO1 [Example 74, (4aR,6S,8aS)-8a-(2-fluoro-5-((3-fluoropyridin-4-yl)oxy)phenyl)-2-imino-3,6-dimethylhexahydro-1H-pyrano[3,4-d]pyrimidin-4(4aH)-one] | 7.50 | 7.35
Cc1cc([C@H]2C[C@H]3C(=O)N(C)C(=N)N[C@@]3(c3cc(F)ccc3F)CO2)on1 [Example 8, (4aR,6R,8aS)-8a-(2,5-difluorophenyl)-2-imino-3-methyl-6-(3-methylisoxazol-5-yl)hexahydro-1H-pyrano[3,4-d]pyrimidin-4(4aH)-one] | 7.47 | 6.88
CN1C(=N)N[C@@]2(c3cc(Oc4cccc(C#N)c4)ccc3F)CO[C@@H](C3CC3)C[C@H]2C1=O [Example 25, 3-(3-((4aR,6R,8aS)-6-cyclopropyl-2-imino-3-methyl-4-oxohexahydro-1H-pyrano[3,4-d]pyrimidin-8a(8H)-yl)-4-fluorophenoxy)benzonitrile] | 7.34 | 7.57
CN1C(=N)N[C@@]2(c3cc(OCC45CC(C4)C5)ccc3F)CO[C@@H](C3CC3)C[C@H]2C1=O [Example 54, (4aR,6R,8aS)-8a-(5-(bicyclo[1.1.1]pentan-1-ylmethoxy)-2-fluorophenyl)-6-cyclopropyl-2-imino-3-methylhexahydro-1H-pyrano[3,4-d]pyrimidin-4(4aH)-one] | 8.40 | 7.68
CN1C(=N)N[C@@]2(c3cc(Oc4cc(-n5cccn5)ncn4)ccc3F)CO[C@@H](C3CC3)C[C@H]2C1=O [Example 13, (4aR,6R,8aS)-8a-(5-((6-(1H-pyrazol-1-yl)pyrimidin-4-yl)oxy)-2-fluorophenyl)-6-cyclopropyl-2-imino-3-methylhexahydro-1H-pyrano[3,4-d]pyrimidin-4(4aH)-one] | 7.64 | 7.28
COC[C@@H]1C[C@H]2C(=O)N(C)C(=N)N[C@@]2(c2ccc(F)cc2F)CO1 [Example 47, (4aR,6S,8aS)-8a-(2,4-difluorophenyl)-2-imino-6-(methoxymethyl)-3-methylhexahydro-1H-pyrano[3,4-d]pyrimidin-4(4aH)-one] | 5.03 | 5.24
COc1cncc(Oc2ccc(F)c([C@]34CO[C@@H](C5CC5)C[C@H]3C(=O)N(C)C(=N)N4)c2)n1 [Example 42, (4aR,6R,8aS)-6-cyclopropyl-8a-(2-fluoro-5-((6-methoxypyrazin-2-yl)oxy)phenyl)-2-imino-3-methylhexahydro-1H-pyrano[3,4-d]pyrimidin-4(4aH)-one] | 7.29 | 8.15
CN1C(=N)N[C@@]2(c3cc(OC4CC(F)(F)C4)ccc3F)CO[C@@H](C3CC3)C[C@H]2C1=O [Example 57, (4aR,6R,8aS)-6-cyclopropyl-8a-(5-(3,3-difluorocyclobutoxy)-2-fluorophenyl)-2-imino-3-methylhexahydro-1H-pyrano[3,4-d]pyrimidin-4(4aH)-one] | 7.39 | 7.37
CN1C(=N)N[C@@]2(c3cc(OCC4CC4)ccc3F)CO[C@@H](c3ccc(F)cc3)C[C@H]2C1=O [Example 85, (4aR,6R,8aS)-8a-(5-(cyclopropylmethoxy)-2-fluorophenyl)-6-(4-fluorophenyl)-2-imino-3-methylhexahydro-1H-pyrano[3,4-d]pyrimidin-4(4aH)-one] | 9.12 | 8.49
CN1C(=N)N[C@@]2(c3cc(OCC4CC4)ccc3F)COCC[C@H]2C1=O [Example 88, (4aR,8aS)-8a-(5-(cyclopropylmethoxy)-2-fluorophenyl)-2-imino-3-methylhexahydro-1H-pyrano[3,4-d]pyrimidin-4(4aH)-one] | 8.22 | 7.36
Cc1nccnc1Oc1ccc(F)c([C@]23CO[C@@H](C)C[C@H]2C(=O)N(C)C(=N)N3)c1 [Example 70, (4aR,6S,8aS)-8a-(2-fluoro-5-((3-methylpyrazin-2-yl)oxy)phenyl)-2-imino-3,6-dimethylhexahydro-1H-pyrano[3,4-d]pyrimidin-4(4aH)-one] | 6.63 | 6.40
COC[C@H]1C[C@H]2C(=O)N(C)C(=N)N[C@@]2(c2cc(Oc3ncccc3F)c(F)cc2F)CO1 [Example 3, (4aR,6R,8aS)-8a-(2,4-difluoro-5-((3-fluoropyridin-2-yl)oxy)phenyl)-2-imino-6-(methoxymethyl)-3-methylhexahydro-1H-pyrano[3,4-d]pyrimidin-4(4aH)-one] | 8.52 | 9.00
CN1C(=N)N[C@@]2(c3cc(Oc4cncc(C#N)c4)ccc3F)CO[C@@H](C3CC3)C[C@H]2C1=O [Example 27, 5-(3-((4aR,6R,8aS)-6-cyclopropyl-2-imino-3-methyl-4-oxohexahydro-1H-pyrano[3,4-d]pyrimidin-8a(8H)-yl)-4-fluorophenoxy)nicotinonitrile] | 7.29 | 8.00
